Active and inactive are the calls of the source. The rule behind the calls is not given here.
Legend:
[1] = Ratio of paclitaxel IC50 for cytotoxicity against HEK293T cells in absence of test compound to paclitaxel IC50 for HEK293T cells expressing ABCB1 in presence of 4 uM test compound; format: functional, Homo sapiens
[2] = Ratio of doxorubicin IC50 for cytotoxicity against human SW620 cells in absence of test compound to doxorubicin IC50 for human SW620/Ad300 cells in presence to 10 uM test compound; format: functional
A549 = test: Cytotoxicity against human A549 cells assessed as decrease in cell survival at 10 to 20 uM after 72 hrs by MTT assay; format: cell-based; conditions: a549, 72 h
SW-620 [3] = test: Potentiation of cisplatin-induced cytotoxicity against human SW620 cells assessed as change in cisplatin IC50 at 20 uM after 72 hrs by MTT assay relative to control; format: cell-based; conditions: sw-620, 72 h
SW620/AD300 [4] = test: Cytotoxicity against human SW620/AD300 cells assessed as decrease in cell survival after 72 hrs by MTT assay; format: cell-based; conditions: SW620/AD300, 72 h
HEK-293T [5] = test: Potentiation of paclitaxel-induced cytotoxicity against HEK293T cells assessed as change in paclitaxel IC50 at 20 uM after 72 hrs by MTT assay relative to control; format: cell-based; conditions: human
HEK-293T [6] = test: Potentiation of cisplatin-induced cytotoxicity against HEK293T cells assessed as change in cisplatin IC50 at 10 uM after 72 hrs by MTT assay relative to control; format: cell-based; conditions: human
[7] = Ratio of doxorubicin IC50 for cytotoxicity against HEK293T cells in absence of test compound to doxorubicin IC50 for HEK293T cells expressing ABCB1 in presence of 4 uM test compound; format: functional, Homo sapiens
[8] = Ratio of cisplatin IC50 for cytotoxicity against HEK293T cells in absence of test compound to cisplatin IC50 for HEK293T cells expressing ABCB1 in presence of 10 uM test compound; format: functional, Homo sapiens
[9] = Ratio of cisplatin IC50 for cytotoxicity against human SW620 cells in absence of test compound to cisplatin IC50 for human SW620/Ad300 cells in presence to 10 uM test compound; format: functional
SW-620 [10] = test: Potentiation of doxorubicin-induced cytotoxicity against human SW620 cells assessed as change in doxorubicin IC50 at 10 uM after 72 hrs by MTT assay relative to control; format: cell-based; conditions: sw-620, 72 h
[11] = Ratio of paclitaxel IC50 for cytotoxicity against human SW620 cells in absence of test compound to paclitaxel IC50 for human SW620/Ad300 cells in presence to 4 uM test compound; format: functional
SW620/AD300 [12] = test: Effect on expression of ABCB1 protein in human SW620/Ad300 cells at 20 uM after 24 to 96 hrs by Western blot method; format: functional, cell-based
[13] = Ratio of doxorubicin IC50 for cytotoxicity against HEK293T cells in absence of test compound to doxorubicin IC50 for HEK293T cells expressing ABCB1 in presence of 20 uM test compound; format: functional, Homo sapiens
HEK-293T [14] = test: Potentiation of paclitaxel-induced cytotoxicity against HEK293T cells assessed as change in paclitaxel IC50 at 4 uM after 72 hrs by MTT assay relative to control; format: cell-based; conditions: human
HEK-293T [15] = test: Potentiation of doxorubicin-induced cytotoxicity against HEK293T cells assessed as change in doxorubicin IC50 at 4 uM after 72 hrs by MTT assay relative to control; format: cell-based; conditions: human
SW-620 [16] = test: Potentiation of paclitaxel-induced cytotoxicity against human SW620 cells assessed as change in paclitaxel IC50 at 10 uM after 72 hrs by MTT assay relative to control; format: cell-based; conditions: sw-620, 72 h
HEK-293T [17] = test: Potentiation of cisplatin-induced cytotoxicity against HEK293T cells assessed as change in cisplatin IC50 at 4 uM after 72 hrs by MTT assay relative to control; format: cell-based; conditions: human
[18] = molecular target: T1, ATP-dependent translocase ABCB1 (Homo sapiens, UniProt P08183); test: Stabilization of ABCB1 in human SW620/Ad300 cells at 10 uM after 30 mins by cellular thermal shift assay; format: cell-based; conditions: 0.5 h
T1 sequence (P08183 whole entry): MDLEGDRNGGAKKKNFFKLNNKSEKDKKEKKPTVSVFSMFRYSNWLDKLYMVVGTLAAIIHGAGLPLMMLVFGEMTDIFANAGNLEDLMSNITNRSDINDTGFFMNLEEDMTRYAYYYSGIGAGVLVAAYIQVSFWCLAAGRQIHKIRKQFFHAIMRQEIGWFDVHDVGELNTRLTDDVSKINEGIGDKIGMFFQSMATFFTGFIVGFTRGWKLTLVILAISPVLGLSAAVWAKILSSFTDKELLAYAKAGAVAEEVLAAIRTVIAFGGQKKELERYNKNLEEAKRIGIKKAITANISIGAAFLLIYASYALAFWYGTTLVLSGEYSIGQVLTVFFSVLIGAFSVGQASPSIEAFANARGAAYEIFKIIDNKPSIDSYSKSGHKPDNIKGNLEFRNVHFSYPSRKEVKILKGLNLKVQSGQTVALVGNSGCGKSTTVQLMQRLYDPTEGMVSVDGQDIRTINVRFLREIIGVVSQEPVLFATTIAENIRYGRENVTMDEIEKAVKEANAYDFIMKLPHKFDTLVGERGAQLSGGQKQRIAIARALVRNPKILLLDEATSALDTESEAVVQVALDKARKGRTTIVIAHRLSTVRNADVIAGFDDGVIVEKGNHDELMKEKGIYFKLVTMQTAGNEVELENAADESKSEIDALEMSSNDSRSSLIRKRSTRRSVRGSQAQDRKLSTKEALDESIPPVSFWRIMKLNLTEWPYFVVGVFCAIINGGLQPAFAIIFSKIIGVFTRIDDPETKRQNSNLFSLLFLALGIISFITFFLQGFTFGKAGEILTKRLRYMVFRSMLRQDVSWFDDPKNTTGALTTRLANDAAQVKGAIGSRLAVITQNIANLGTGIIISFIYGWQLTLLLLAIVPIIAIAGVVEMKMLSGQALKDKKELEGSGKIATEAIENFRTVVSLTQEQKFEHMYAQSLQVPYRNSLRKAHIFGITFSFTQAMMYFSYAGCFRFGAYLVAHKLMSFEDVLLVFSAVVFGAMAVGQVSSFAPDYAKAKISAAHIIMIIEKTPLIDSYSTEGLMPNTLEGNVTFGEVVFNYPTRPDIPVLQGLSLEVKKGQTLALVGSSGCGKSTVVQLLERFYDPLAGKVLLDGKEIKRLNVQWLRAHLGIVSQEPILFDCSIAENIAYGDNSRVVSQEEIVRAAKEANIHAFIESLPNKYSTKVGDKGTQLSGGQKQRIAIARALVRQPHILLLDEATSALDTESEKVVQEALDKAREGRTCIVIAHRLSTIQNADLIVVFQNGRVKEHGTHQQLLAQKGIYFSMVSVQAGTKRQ

[19] = Ratio of doxorubicin IC50 for cytotoxicity against HEK293T cells in absence of test compound to doxorubicin IC50 for HEK293T cells expressing ABCB1 in presence of 10 uM test compound; format: functional, Homo sapiens
SW-620 [20] = test: Potentiation of paclitaxel-induced cytotoxicity against human SW620 cells assessed as change in paclitaxel IC50 at 4 uM after 72 hrs by MTT assay relative to control; format: cell-based; conditions: sw-620, 72 h
SW-620 [21] = test: Potentiation of cisplatin-induced cytotoxicity against human SW620 cells assessed as change in cisplatin IC50 at 4 uM after 72 hrs by MTT assay relative to control; format: cell-based; conditions: sw-620, 72 h
[22] = Ratio of cisplatin IC50 for cytotoxicity against HEK293T cells in absence of test compound to cisplatin IC50 for HEK293T cells expressing ABCB1 in presence of 4 uM test compound; format: functional, Homo sapiens
MGC-803 = test: Cytotoxicity against human MGC803 cells assessed as decrease in cell survival at 10 to 20 uM after 72 hrs by MTT assay; format: cell-based; conditions: mgc-803, 72 h
HEK-293T [23] = test: Potentiation of paclitaxel-induced cytotoxicity against HEK293T cells assessed as change in paclitaxel IC50 at 10 uM after 72 hrs by MTT assay relative to control; format: cell-based; conditions: human
HEK-293T [24] = test: Potentiation of cisplatin-induced cytotoxicity against HEK293T cells assessed as change in cisplatin IC50 at 20 uM after 72 hrs by MTT assay relative to control; format: cell-based; conditions: human
[25] = Ratio of paclitaxel IC50 for cytotoxicity against human SW620 cells in absence of test compound to paclitaxel IC50 for human SW620/Ad300 cells in presence to 10 uM test compound; format: functional
[26] = Ratio of doxorubicin IC50 for cytotoxicity against human SW620 cells in absence of test compound to doxorubicin IC50 for human SW620/Ad300 cells in presence to 4 uM test compound; format: functional
HEK-293T [27] = test: Potentiation of doxorubicin-induced cytotoxicity against HEK293T cells assessed as change in doxorubicin IC50 at 20 uM after 72 hrs by MTT assay relative to control; format: cell-based; conditions: human
SW-620 [28] = test: Potentiation of doxorubicin-induced cytotoxicity against human SW620 cells assessed as change in doxorubicin IC50 at 20 uM after 72 hrs by MTT assay relative to control; format: cell-based; conditions: sw-620, 72 h
HEK-293T [29] = test: Potentiation of doxorubicin-induced cytotoxicity against HEK293T cells assessed as change in doxorubicin IC50 at 10 uM after 72 hrs by MTT assay relative to control; format: cell-based; conditions: human
[30] = Ratio of paclitaxel IC50 for cytotoxicity against human SW620 cells in absence of test compound to paclitaxel IC50 for human SW620/Ad300 cells in presence to 20 uM test compound; format: functional
[31] = molecular target: T1, ATP-dependent translocase ABCB1; test: Inhibition of ABCB1 (unknown origin) expressed in HEK293T cells assessed as potentiation of doxorubicin-induced cytotoxicity after 72 hrs by MTT assay; format: cell-based
[32] = Ratio of doxorubicin IC50 for cytotoxicity against human SW620 cells in absence of test compound to doxorubicin IC50 for human SW620/Ad300 cells in presence to 20 uM test compound; format: functional
[33] = molecular target: T1, ATP-dependent translocase ABCB1; test: Inhibition of ABCB1 in human SW620/Ad300 cells assessed as increase in intracellular paclitaxel accumulation at 10 to 20 uM preincubated for 72 hrs followed by paclitaxel addition and measured after 3 hrs by UPLC method; format: cell-based
[34] = Ratio of paclitaxel IC50 for cytotoxicity against HEK293T cells in absence of test compound to paclitaxel IC50 for HEK293T cells expressing ABCB1 in presence of 10 uM test compound; format: functional, Homo sapiens
[35] = Ratio of paclitaxel IC50 for cytotoxicity against HEK293T cells in absence of test compound to paclitaxel IC50 for HEK293T cells expressing ABCB1 in presence of 20 uM test compound; format: functional, Homo sapiens
SGC-7901 = test: Cytotoxicity against human SGC7901 cells assessed as decrease in cell survival at 10 to 20 uM after 72 hrs by MTT assay; format: cell-based; conditions: sgc-7901, 72 h
ECa-109 cell line = test: Cytotoxicity against human EC109 cells assessed as decrease in cell survival at 10 to 20 uM after 72 hrs by MTT assay; format: cell-based; conditions: eca-109, 72 h
SW-620 [36] = test: Cytotoxicity against human SW620 cells assessed as decrease in cell survival after 72 hrs by MTT assay; format: cell-based; conditions: SW-620, 72 h
[37] = Ratio of cisplatin IC50 for cytotoxicity against human SW620 cells in absence of test compound to cisplatin IC50 for human SW620/Ad300 cells in presence to 20 uM test compound; format: functional
SW-620 [38] = test: Potentiation of cisplatin-induced cytotoxicity against human SW620 cells assessed as change in cisplatin IC50 at 10 uM after 72 hrs by MTT assay relative to control; format: cell-based; conditions: sw-620, 72 h
[39] = Ratio of cisplatin IC50 for cytotoxicity against HEK293T cells in absence of test compound to cisplatin IC50 for HEK293T cells expressing ABCB1 in presence of 20 uM test compound; format: functional, Homo sapiens
SW-620 [40] = test: Potentiation of doxorubicin-induced cytotoxicity against human SW620 cells assessed as change in doxorubicin IC50 at 4 uM after 72 hrs by MTT assay relative to control; format: cell-based; conditions: sw-620, 72 h
[41] = Ratio of cisplatin IC50 for cytotoxicity against human SW620 cells in absence of test compound to cisplatin IC50 for human SW620/Ad300 cells in presence to 4 uM test compound; format: functional
[42] = molecular target: T1, ATP-dependent translocase ABCB1; test: Inhibition of ABCB1 in human SW620/Ad300 cells assessed as potentiation of paclitaxel-induced cytotoxicity after 72 hrs by MTT assay; format: cell-based
SW-620 [43] = test: Potentiation of paclitaxel-induced cytotoxicity against human SW620 cells assessed as change in paclitaxel IC50 at 20 uM after 72 hrs by MTT assay relative to control; format: cell-based; conditions: sw-620, 72 h
[44] = molecular target: T1, ATP-dependent translocase ABCB1; test: Inhibition of ABCB1 in human SW620/Ad300 cells assessed as potentiation of doxorubicin-induced cytotoxicity after 72 hrs by MTT assay; format: cell-based
SW620/AD300 [45] = test: Effect on expression of ABCB1 protein in human SW620/Ad300 cells at 10 to 20 uM by Western blot method; format: functional, cell-based
TE-1 = test: Cytotoxicity against human TE1 cells assessed as decrease in cell survival at 10 to 20 uM after 72 hrs by MTT assay; format: cell-based; conditions: te-1, 72 h

O=c1cc(-c2ccccc2)[nH]c2nc(SCc3nc4ccccc4[nH]3)nn12
Ratio IC50 [1]: 15.69
Ratio IC50 [2]: 6.02
Activity (A549): Non-Toxic
fold change (FC) (SW-620 [3]): 0.97
IC50 (SW620/AD300 [4]): 106 µM
fold change (FC) (HEK-293T [5]): 0.83
fold change (FC) (HEK-293T [6]): 1.04
Ratio IC50 [7]: 4.1
Ratio IC50 [8]: 1.05
Ratio IC50 [9]: 0.96
fold change (FC) (SW-620 [10]): 1.17
Ratio IC50 [11]: 156.74
Activity (SW620/AD300 [12]): inactive
Ratio IC50 [13]: 4.05
fold change (FC) (HEK-293T [14]): 0.84
fold change (FC) (HEK-293T [15]): 1.07
fold change (FC) (SW-620 [16]): 1.2
fold change (FC) (HEK-293T [17]): 0.89
Activity [18]: Active
Ratio IC50 [19]: 5.36
fold change (FC) (SW-620 [20]): 1.29
fold change (FC) (SW-620 [21]): 1.1
Ratio IC50 [22]: 0.91
Activity (MGC-803): Non-Toxic
fold change (FC) (HEK-293T [23]): 0.87
fold change (FC) (HEK-293T [24]): 0.98
Ratio IC50 [25]: 279.2
Ratio IC50 [26]: 4.32
fold change (FC) (HEK-293T [27]): 1.08
fold change (FC) (SW-620 [28]): 1.14
fold change (FC) (HEK-293T [29]): 1.14
Ratio IC50 [30]: 125.8
inhibition (INH) [31]: Dose-dependent effect
Ratio IC50 [32]: 3.77
inhibition (INH) [33]: Active
Ratio IC50 [34]: 27.8
Ratio IC50 [35]: 19.37
Activity (SGC-7901): Non-Toxic
Activity (ECa-109 cell line): Non-Toxic
IC50 (SW-620 [36]): 86 µM
Ratio IC50 [37]: 1.01
fold change (FC) (SW-620 [38]): 1.07
Ratio IC50 [39]: 0.91
fold change (FC) (SW-620 [40]): 1.18
Ratio IC50 [41]: 0.98
inhibition (INH) [42]: Dose-dependent effect
fold change (FC) (SW-620 [43]): 0.81
inhibition (INH) [44]: Dose-dependent effect
Activity (SW620/AD300 [45]): inactive
Activity (TE-1): Non-Toxic
